Data reported in patent publication US20060246104A1, “Stable rgd peptidomimetic composition” (priority 2003, published 2006).

What was measured:
[1] = tested on: 3T3 fibroblasts; assay: Cell adhesion assay (cell area coverage on surface-immobilized substrates); type: cell-based; conditions: substance surface-immobilized on tissue culture plastic; 3T3 cells, 24 hrs; relative to untreated tissue culture plastic
Excerpt: For this study, we immobilized AAGPAHA and the peptide GRGDSP on dextran-coated tissue culture plastic dishes in a series of steps shown in FIGS. 2-4. Multi-well cell culture dishes were first surface-aminated by adsorbing poly-lysine (FIG. 2). Dextran was then immobilized on these surfaces (FIG. 3) using reported methods (Massia, Biomaterials 21:2753-61, 2000). AAGPAHA and GRGDSP were then surface-immobilized on dextran-coated tissue culture plastic (FIG. 4) using reported methods (Massia, J Biomed Mater Res 56:390-99, 2001). Dextran substrates were activated by oxidation of the glucose subunits (Glc) with sodium metaperiodate to convert Glc subunits to […]. […]
Cell area coverage assays were performed to assess the extent of 3T3 cell adhesion and spreading on all substrates. […] Following incubation, samples were fixed (3.8% formaldehyde in phosphate buffered saline (PBS) for 5 min. and stained with 0.1% aqueous toluidine blue (5 min). Stained cells were then examined using phase contrast or stereomicroscopy (Leica) at 100× magnification. Three random 100× fields were selected for each substrate for analysis. The extent of cell adhesion was determined for each captured digital image by calculating a percentage of cell area coverage using digital image analysis software. Final data were presented as a percentage of control adhesion. […]

[2] = tested on: 3T3 cell adhesion and spreading (integrin-mediated); assay: Cell adhesion inhibition assay (soluble competitor against grafted substrate); type: cell-based; conditions: soluble GRGDSP 1 mg/mL, 3T3 cells, 24 hrs
Experimental: The cell line utilized in these studies were 3T3 fibroblasts (ATCC # CRL-6476, Manassas, Va.). 3T3 cells were maintained in Dulbecco's modified Eagle medium (DMEM) with 10% fetal bovine serum (FBS) at 37° C. in saturated humidity. All cell culture media and reagents were obtained from Life Technologies, Inc. (Rockville, Md.).
Cell area coverage assays were performed to assess the extent of 3T3 cell adhesion and spreading on all substrates. 3T3 cells were seeded on 24-well culture dishes (15,000 cells/well) and incubated for 24 hrs. Following incubation, samples were fixed (3.8% formaldehyde in phosphate buffered saline (PBS) for 5 min. and stained with 0.1% aqueous toluidine blue (5 min). Stained cells were then examined using phase contrast or stereomicroscopy (Leica) at 100× magnification. Three random 100× fields were selected for each substrate for analysis. The extent of cell adhesion was determined for each captured digital image by calculating a percentage of cell area coverage using digital image analysis software. Final data were presented as a percentage of control adhesion.
The percentage of control adhesion was calculated by multiplying the ratio of % area coverage on dextran-coated, peptide-grafted, or peptidomimetic-grafted substrates to % cell area coverage on untreated tissue culture plastic by 100. […]

[3] = tested on: trypsin; assay: Enzymatic stability in trypsin solution, MALDI-TOF mass spectrometry; type: in vitro ADME; conditions: for decrease in mass peak size after treatment with trypsin / mass peak intensity after trypsin exposure / degradation after prolonged trypsin exposure / mass peak intensity after prolonged trypsin exposure: 0.05 mM trypsin; for decrease in mass peak size after treatment with trypsin / mass peak intensity after trypsin exposure / mass peak intensity before trypsin exposure: 1 hr, 37° C.; for mass peak intensity after trypsin exposure / mass peak intensity before trypsin exposure: HEPES pH 8, 0.4 mM; for degradation after prolonged trypsin exposure / mass peak intensity after prolonged trypsin exposure / mass peak intensity before prolonged trypsin exposure: 16 hrs, room temperature; for mass peak intensity before trypsin exposure / mass peak intensity before prolonged trypsin exposure: control without trypsin
Experimental: GRGDSP and AAGPAHA were mixed with trypsin solution in HEPES buffer (10 mM, pH=8) to a final solution of 0.4 mM peptide and 0.05 mM (0.12%) trypsin and incubated at 37° C. for 1 hr. In a control experiment, both peptides were dissolved in the same buffer without trypsin at the same final concentrations and incubated at 37° C. for 1 hr. Similarly, in another set of experiments, the same samples were incubated at room temperature overnight. At the end of the incubation period, trypsin activity was quenched by adding inhibitor; and the samples were analyzed by MALDI-TOF mass spectrometry to assess the extent of degradation.

decrease in mass peak size after treatment with trypsin [3]	mass peak intensity after trypsin exposure [3]	mass peak intensity after prolonged trypsin exposure [3]	mass peak intensity before trypsin exposure [3]	mass peak intensity before prolonged trypsin exposure [3]	Compound	percentage of control adhesion (cell area coverage) [1]	percentage of control adhesion on surface-immobilized AAGPAHA in presence of soluble compound [2]	percentage of control adhesion on surface-immobilized AAGPAHA in presence of soluble compound ([2]; listed as RGD peptide)	degradation after prolonged trypsin exposure [3]
73%	4.0×10^3	3.0×10^2	1.5×10^4	1.5×10^4	GRGDSP	124.3±4.1 % control	5.7%±6.9%	decreased cell coverage	about 98%
no significant change	the same	the same	1.2×10^4	1.2×10^4	N=C(N)NCCCC(N)C(=O)NCCCCC(N)C(=O)O (stereo not shown) [AAGPAHA, 2-amino-6-[(2-amino-5{guanidino}pentanoyl)amino]hexanoic acid]	105.9±12.8 % control			highly resistant to trypsin-mediated degradation
